# Assay results taken from ChEMBL document CHEMBL4665641, “Lead optimization and efficacy evaluation of quinazoline-based BET family inhibitors for potential treatment of cancer and inflammatory diseases” (Bioorg Med Chem Lett, 2019).
# The source made the active and inactive calls. No cut-off for these calls is given here.
# How the values were obtained:
# [1] = tested on: Kasumi 1; assay: Antitumor activity against human Kasumi-1 cells xenografted in CB17 SCID mouse assessed as inhibition of tumor growth at 10 mg/kg, po QD for 25 days; type: functional; conditions: Kasumi 1, po, 600 h, time 25 day, read-out: TGI
# [2] = tested on: Kasumi 1; assay: Antitumor activity against human Kasumi-1 cells xenografted in CB17 SCID mouse assessed as tumor volume at 40 mg/kg, po QD for 25 days (reference value: 2189 +/- 604 mm3); type: functional; conditions: time 25 day
# [3] = tested on: Kasumi 1; assay: Antitumor activity against human Kasumi-1 cells xenografted in CB17 SCID mouse assessed as inhibition of tumor growth at 40 mg/kg, po QD for 25 days; type: functional; conditions: Kasumi 1, po, 600 h, time 25 day, read-out: TGI
# [4] = Oral bioavailability in CD-1 mouse at 10 mg/kg; type: ADME, organism-based; conditions: mouse, in vivo, 10 mg/kg
# [5] = biological target: Bromodomain-containing protein 4 (Homo sapiens, UniProt O60885); assay: Competitive binding affinity to human partial length BRD4 (BD1,2) (N44 to E460 residues) expressed in bacterial expression system by BROMOscan assay
# [6] = Half life in CD-1 mouse at 10 mg/kg, po; type: ADME, organism-based; conditions: in vivo
# [7] = Cmax in CD-1 mouse at 2 mg/kg, iv measured after 5 mins; type: ADME, organism-based; parameters: route intravenous, dose 2 mg/kg; conditions: mouse, in vivo, 5 min
# [8] = Cmax in CD-1 mouse at 10 mg/kg, po; type: ADME, organism-based; parameters: route oral, dose 10 mg/kg; conditions: CD-1, mouse, in vivo, read-out: Cmax
# [9] = AUC(0 to infinity) in CD-1 mouse at 10 mg/kg, po; type: ADME, organism-based; parameters: route oral, time infinity, dose 10 mg/kg; conditions: mouse, in vivo
# [10] = Toxicity in CD1 mouse assessed as weight loss at 50 to 100 mg/kg, po administered once daily for 5 days and observed for 5 days after last dose; type: organism-based; conditions: in vivo, 120 h, dose 50-100 mg/kg, time 5 day
# [11] = biological target: T1, CYP1A2 (Homo sapiens, UniProt P05177); assay: Inhibition of human CYP1A2 at 10 uM relative to control; type: ADME
# T1 sequence (P05177 whole entry): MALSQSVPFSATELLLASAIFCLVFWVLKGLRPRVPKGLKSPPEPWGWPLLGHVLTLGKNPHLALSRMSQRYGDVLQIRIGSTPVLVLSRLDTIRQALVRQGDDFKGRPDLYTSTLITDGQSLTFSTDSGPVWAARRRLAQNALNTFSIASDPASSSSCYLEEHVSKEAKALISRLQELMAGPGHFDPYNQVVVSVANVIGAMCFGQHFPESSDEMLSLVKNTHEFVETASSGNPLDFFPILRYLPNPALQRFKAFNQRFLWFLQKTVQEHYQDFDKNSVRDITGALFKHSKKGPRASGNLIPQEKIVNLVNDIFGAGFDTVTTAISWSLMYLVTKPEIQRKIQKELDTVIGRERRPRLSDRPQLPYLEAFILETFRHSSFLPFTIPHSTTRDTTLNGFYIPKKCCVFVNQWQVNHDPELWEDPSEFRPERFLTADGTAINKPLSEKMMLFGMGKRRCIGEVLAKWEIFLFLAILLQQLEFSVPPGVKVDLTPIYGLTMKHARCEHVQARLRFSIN
# [12] = biological target: Voltage-gated inwardly rectifying potassium channel KCNH2 (Homo sapiens, UniProt Q12809); assay: Inhibition of human ERG by manual patch clamp assay
# [13] = tested on: Kasumi 1; assay: Antitumor activity against human Kasumi-1 cells xenografted in CB17 SCID mouse assessed as tumor volume at 10 mg/kg, po QD for 25 days (reference value: 2189 +/- 604 mm3); type: functional; conditions: time 25 day
# [14] = Drug uptake in tumor tissue of CB17 SCID mouse xenografted with human Kasumi-1 cells at 10 mg/kg, po QD for 25 days and measured after 24 hrs post last dose; type: ADME, organism-based, Neoplasm; conditions: time 25 day, read-out: Drug uptake
# [15] = Drug uptake in tumor tissue of CB17 SCID mouse xenografted with human Kasumi-1 cells at 40 mg/kg, po QD for 25 days and measured after 24 hrs post last dose; type: ADME, organism-based, Neoplasm; conditions: time 25 day, read-out: Drug uptake
# [16] = tested on: Mus musculus; assay: Antiarthritic activity in collagen/complete freund's adjuvant-induced arthritis DBA/1 mouse model assessed as reduction in arthritis severity score at 50 mg/kg, po administered via gavage once daily starting from day 21 to day 41 post collagen/CFA challenge and measured on day 0, 18, 21 followed by three times weekly up to 42 days; type: functional, organism-based; conditions: time 21.0 day
# [17] = Toxicity in collagen/CFA induced arthritis DBA/1 mouse model assessed as body weight at 50 mg/kg, po administered via gavage starting from day 21 to day 41 post collagen/CFA challenge and measured on day 21 relative to initial weight (reference value: 94.96%); type: organism-based; conditions: in vivo, 504 h, time 21 day
# [18] = tested on: Mus musculus; assay: Antiinflammatory activity in collagen/complete freund's adjuvant-induced arthritis DBA/1 mouse model assessed as IL-2 level in rear right paw at 50 mg/kg, po administered via gavage starting from day 21 to day 41 post collagen/CFA challenge and measured on day 42 measured per mg protein (reference value: 0.2 pg); type: functional; conditions: time 21 day
# [19] = tested on: Mus musculus; assay: Antiinflammatory activity in collagen/complete freund's adjuvant-induced arthritis DBA/1 mouse model assessed as IL-6 level in rear right paw at 50 mg/kg, po administered via gavage starting from day 21 to day 41 post collagen/CFA challenge and measured on day 42 measured per mg protein (reference value: 180.7 pg); type: functional; conditions: time 21 day
# [20] = tested on: Mus musculus; assay: Antiinflammatory activity in collagen/complete freund's adjuvant-induced arthritis DBA/1 mouse model assessed as IP-10 level in rear right paw at 50 mg/kg, po administered via gavage starting from day 21 to day 41 post collagen/CFA challenge and measured on day 42 measured per mg protein (reference value: 6.23 pg); type: functional; conditions: time 21 day
# [21] = tested on: Mus musculus; assay: Antiinflammatory activity in collagen/complete freund's adjuvant-induced arthritis DBA/1 mouse model assessed as MCP-1 level in rear right paw at 50 mg/kg, po administered via gavage starting from day 21 to day 41 post collagen/CFA challenge and measured on day 42 measured per mg protein (reference value: 126.24 pg); type: functional; conditions: time 21 day
# [22] = tested on: Kasumi 1; assay: Antitumor activity against human Kasumi-1 cells xenografted in CB17 SCID mouse assessed as tumor volume at 10 mg/kg, po QD for 29 days (reference value: 1734 +/- 220 mm3); type: functional; conditions: time 29 day
# [23] = tested on: Kasumi 1; assay: Antitumor activity against human Kasumi-1 cells xenografted in CB17 SCID mouse assessed as tumor weight at 10 mg/kg, po QD for 29 days (reference value: 2.1+/- 0.3 g); type: functional; conditions: time 29 day
# [24] = biological target: T2, Bromodomain-containing protein 2 (Homo sapiens, UniProt P25440); assay: Binding affinity to human partial length BRD2 (BD1,2) (K71 to D455 residues) expressed in bacterial expression system by BROMOscan assay
# [25] = biological target: T2, Bromodomain-containing protein 2; assay: Binding affinity to human partial length BRD2 (BD2) (E348 to D455 residues) expressed in bacterial expression system by BROMOscan assay
# [26] = biological target: Bromodomain-containing protein 3 (Homo sapiens, UniProt Q15059); assay: Binding affinity to human partial length BRD3 (BD1,2) (P24 to P416 residues) expressed in bacterial expression system by BROMOscan assay
# [27] = biological target: Bromodomain testis-specific protein (Homo sapiens, UniProt Q58F21); assay: Binding affinity to human partial length BRDT (BD2) (K250 to E382 residues) expressed in bacterial expression system by BROMOscan assay
# T2 sequence (P25440 whole entry, the tested form may be a part): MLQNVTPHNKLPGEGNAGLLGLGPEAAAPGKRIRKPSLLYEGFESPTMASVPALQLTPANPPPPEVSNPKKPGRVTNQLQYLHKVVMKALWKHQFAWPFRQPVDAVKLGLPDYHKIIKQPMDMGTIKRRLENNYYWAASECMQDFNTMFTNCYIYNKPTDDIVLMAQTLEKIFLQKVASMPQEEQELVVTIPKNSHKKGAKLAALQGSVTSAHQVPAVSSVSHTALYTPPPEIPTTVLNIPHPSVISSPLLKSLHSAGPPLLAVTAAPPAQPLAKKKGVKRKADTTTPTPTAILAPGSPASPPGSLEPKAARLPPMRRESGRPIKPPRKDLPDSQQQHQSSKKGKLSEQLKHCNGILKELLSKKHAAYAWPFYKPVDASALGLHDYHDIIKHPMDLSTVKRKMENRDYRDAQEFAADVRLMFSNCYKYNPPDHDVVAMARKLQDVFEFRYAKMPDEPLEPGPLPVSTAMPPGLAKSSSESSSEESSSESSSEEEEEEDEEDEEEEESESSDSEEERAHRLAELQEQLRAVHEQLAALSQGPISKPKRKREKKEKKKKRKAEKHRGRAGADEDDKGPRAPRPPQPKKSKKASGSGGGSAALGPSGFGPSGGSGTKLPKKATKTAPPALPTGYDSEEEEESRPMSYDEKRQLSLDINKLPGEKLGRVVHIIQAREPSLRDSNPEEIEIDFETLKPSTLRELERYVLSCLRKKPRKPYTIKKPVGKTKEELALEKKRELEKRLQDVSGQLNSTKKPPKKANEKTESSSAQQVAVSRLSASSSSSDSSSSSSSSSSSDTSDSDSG
# Chain of Bromodomain-containing protein 3 (Q15059 whole entry, the tested form may be a part): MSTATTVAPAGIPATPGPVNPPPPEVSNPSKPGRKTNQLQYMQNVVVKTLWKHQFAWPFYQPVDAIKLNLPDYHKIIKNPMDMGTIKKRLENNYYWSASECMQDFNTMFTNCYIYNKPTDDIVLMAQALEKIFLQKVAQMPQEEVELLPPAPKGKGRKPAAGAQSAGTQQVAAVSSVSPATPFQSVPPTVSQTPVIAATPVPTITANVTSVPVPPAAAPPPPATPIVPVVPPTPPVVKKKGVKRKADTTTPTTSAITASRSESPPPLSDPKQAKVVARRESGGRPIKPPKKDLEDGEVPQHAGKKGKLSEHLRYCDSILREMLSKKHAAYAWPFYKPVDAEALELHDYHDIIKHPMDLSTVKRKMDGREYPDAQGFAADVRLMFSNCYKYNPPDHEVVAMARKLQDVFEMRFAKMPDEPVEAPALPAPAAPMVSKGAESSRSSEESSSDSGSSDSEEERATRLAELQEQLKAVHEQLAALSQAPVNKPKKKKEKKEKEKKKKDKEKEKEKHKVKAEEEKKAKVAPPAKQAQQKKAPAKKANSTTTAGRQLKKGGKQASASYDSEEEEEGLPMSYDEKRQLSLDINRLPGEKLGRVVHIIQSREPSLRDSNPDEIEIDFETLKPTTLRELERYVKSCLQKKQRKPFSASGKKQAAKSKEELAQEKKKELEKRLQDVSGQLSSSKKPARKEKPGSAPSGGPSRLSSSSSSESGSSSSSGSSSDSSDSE
# Chain of Voltage-gated inwardly rectifying potassium channel KCNH2 (Q12809 whole entry): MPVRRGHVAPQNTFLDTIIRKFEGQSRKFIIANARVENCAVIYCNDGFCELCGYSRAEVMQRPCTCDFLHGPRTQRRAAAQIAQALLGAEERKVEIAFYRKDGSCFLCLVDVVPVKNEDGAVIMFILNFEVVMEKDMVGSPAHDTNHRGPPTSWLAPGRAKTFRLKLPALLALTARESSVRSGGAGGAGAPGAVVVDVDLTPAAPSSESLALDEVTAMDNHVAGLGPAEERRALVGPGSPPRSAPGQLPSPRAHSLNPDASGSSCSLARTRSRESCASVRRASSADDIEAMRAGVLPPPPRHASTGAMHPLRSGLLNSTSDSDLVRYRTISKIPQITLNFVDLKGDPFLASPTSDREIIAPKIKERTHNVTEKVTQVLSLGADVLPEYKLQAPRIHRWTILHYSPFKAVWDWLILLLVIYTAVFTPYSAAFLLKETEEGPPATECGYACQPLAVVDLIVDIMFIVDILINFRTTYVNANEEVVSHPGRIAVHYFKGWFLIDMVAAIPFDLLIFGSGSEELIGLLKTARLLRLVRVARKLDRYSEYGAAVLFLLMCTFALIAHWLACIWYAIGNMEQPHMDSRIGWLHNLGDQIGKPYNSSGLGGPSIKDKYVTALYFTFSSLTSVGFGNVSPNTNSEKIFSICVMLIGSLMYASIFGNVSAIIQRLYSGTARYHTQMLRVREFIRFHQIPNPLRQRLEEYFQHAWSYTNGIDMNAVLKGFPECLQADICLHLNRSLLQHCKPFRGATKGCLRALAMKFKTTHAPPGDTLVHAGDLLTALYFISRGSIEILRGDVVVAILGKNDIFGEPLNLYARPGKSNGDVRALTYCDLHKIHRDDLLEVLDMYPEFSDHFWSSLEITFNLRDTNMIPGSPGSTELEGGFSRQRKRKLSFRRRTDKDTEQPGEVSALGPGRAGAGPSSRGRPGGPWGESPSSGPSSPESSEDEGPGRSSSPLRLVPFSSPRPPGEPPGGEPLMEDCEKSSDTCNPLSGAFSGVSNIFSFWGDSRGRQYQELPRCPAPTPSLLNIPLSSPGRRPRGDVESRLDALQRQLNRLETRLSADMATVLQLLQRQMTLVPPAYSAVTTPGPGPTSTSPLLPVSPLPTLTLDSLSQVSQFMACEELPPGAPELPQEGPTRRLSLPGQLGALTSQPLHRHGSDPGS
smiles,measurement,setting,value
Cc1noc(C)c1-c1ccc2nc(-c3cnn(CC(C)(C)O)c3)nc(N3CCOC[C@@H]3c3ccccc3)c2c1,inhibition in vivo at 10 mg/kg,[1],41.4%
same,Activity,[2],66 mm3
same,inhibition in vivo at 40 mg/kg,[3],98.6%
same,F,[4],75%
same,Kd,[5],70 nM
same,half-life,[6],1.7 h
same,Cmax,[7],2337 ng/mL
same,Cmax,[8],2160 ng/mL
same,AUC,[9],18927 ng·h/mL
same,Activity,[10],Non-Toxic
same,inhibition at 10 µM,[11],< 50%
same,IC50,[12],6500 nM
same,Activity,[13],1303 mm3
same,concentration at 600 h,[14],56 ng/g
same,concentration at 600 h,[15],2260 ng/g
same,Activity,[16],Active
same,Activity,[17],101.92%
same,Activity,[18],0.3 pg
same,Activity,[19],21.62 pg
same,Activity,[20],0.92 pg
same,Activity,[21],8.48 pg
same,Activity,[22],1036 mm3
same,Activity,[23],1.22 g
same,Kd,[24],87 nM
same,Kd,[25],200 nM
same,Kd,[26],29 nM
same,Kd,[27],160 nM
